Laboratory results as given in patent US20150011466A1, “APJ Receptor Compounds” (priority 2012, published 2015).
Read-outs that look alike come from different tables or passages of the source. Where a SMILES comes first, the peptide text is derived from it. [ ]: non-standard residue; d: D form. The star is where a group is joined. Palmitoyl = CCCCCCCCCCCCCCCC(=O)*

Key:
APJ receptor = biological target: T1, APJ receptor (Homo sapiens, UniProt P35414); test: HTRF cAMP assay, inhibition of NKH477 stimulated cAMP in Human TRex cells expressing APJ upon doxycycline induction (APJ-hTREX); format: cell-based; conditions: for Ranking: class combining EC50 and % histamine; for percent intrinsic activity at 0.3 µM: read-out: % IA (@ 300 nM)
T1 construct: expressed in transfected cells; host or cells: Human TRex cells (doxycycline-inducible)
T1 sequence (P35414 1-380): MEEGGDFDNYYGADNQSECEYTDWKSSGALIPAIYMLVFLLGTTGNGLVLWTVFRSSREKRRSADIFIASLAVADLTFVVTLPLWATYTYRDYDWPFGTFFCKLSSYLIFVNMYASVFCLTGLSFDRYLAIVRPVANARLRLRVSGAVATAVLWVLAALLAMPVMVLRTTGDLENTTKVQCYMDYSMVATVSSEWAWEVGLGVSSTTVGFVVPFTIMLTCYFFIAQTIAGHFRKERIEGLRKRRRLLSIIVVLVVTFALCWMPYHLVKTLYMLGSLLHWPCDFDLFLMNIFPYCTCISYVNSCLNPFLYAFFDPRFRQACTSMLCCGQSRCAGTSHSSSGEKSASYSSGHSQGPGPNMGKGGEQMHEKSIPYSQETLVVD
Description: HTRF (homogeneous time resolved fluorescence) is a technology developed by Cisbio Bioassays based on TR-FRET (time-resolved fluorescence resonance energy transfer). Cisbio Bioassays has developed a wide selection of HTRF-based assays compatible with whole cells, thereby enabling functional assays to run under more physiological conditions. The IP-One assays are competitive immunoassays using cryptate-labeled anti-IP1 monoclonal antibody and d2-labeled IP1. IP1 is a relatively stable downstream metabolite of IP3, and accumulates in cells following Gq receptor activation.
cAMP kits based on a competitive immunoassay using cryptate-labeled anti-cAMP antibody and d2-labeled cAMP were used to assay the effects of APJ compounds of the present invention. […] Cells are treated with […] doxycycline and seeded in all white 96 well plates @ 40 k/well overnight.

[1] = inhibition of NKH477 stimulated cAMP, APJ-hTREX cells, read-out: APJ-hTREX EC50

CCCCCCCCCCCCCCCC(=O)N[C@H](C(=O)N[C@H](C(=O)N[C@@H](Cc1ccccc1)C(=O)N[C@@H](CCCNC(=N)N)C(=O)N[C@@H](CO)C(=O)N[C@@H](CO)C(=O)N[C@@H](CCC(=O)O)C(=O)N[C@H](CCCCN)C(=O)N[C@@H](CCCNC(=N)N)C(=O)N[C@@H](Cc1c[nH]cn1)C(=O)N[C@@H](CO)C(=O)N[C@@H](C)C(=O)N[C@@H](CC(=O)O)C(=O)N[C@H](C(=O)N[C@@H](Cc1ccccc1)C(=O)N[C@H](C(N)=O)[C@@H](C)CC)[C@@H](C)CC)C(C)C)[C@@H](C)O [Compound 14] (Palmitoyl-TVFRSSE[dK]RHSADIFI-NH2; C-terminus assumed)
Ranking (APJ receptor): **** (EC50 101-500 nM and % histamine<35%)
EC50 (APJ receptor; [1]): 253 nM
percent intrinsic activity at 0.3 µM (APJ receptor): 74%
Histimine (% vs. 48/40) (Histimine (% vs. 48/40)): 20%

CCCCCCCCCCCCCCCC(=O)N[C@H](C(=O)N[C@H](C(=O)N[C@@H](Cc1ccccc1)C(=O)N[C@@H](CCCNC(=N)N)C(=O)N[C@@H](CO)C(=O)N[C@@H](CO)C(=O)N[C@@H](CCC(=O)O)C(=O)N[C@H](CCCCN)C(=O)N[C@@H](CCCNC(=N)N)C(=O)N[C@@H](CCCNC(=N)N)C(=O)N[C@@H](CO)C(=O)N[C@@H](Cc1c[nH]cn1)C(=O)N[C@@H](CC(=O)O)C(=O)N[C@H](C(=O)N[C@@H](Cc1ccccc1)C(=O)N[C@H](C(N)=O)[C@@H](C)CC)[C@@H](C)CC)C(C)C)[C@@H](C)O [Compound 15] (Palmitoyl-TVFRSSE[dK]RRSHDIFI-NH2)
percent intrinsic activity at 0.3 µM (APJ receptor): 77%
Histimine (% vs. 48/40) (Histimine (% vs. 48/40)): 103%

CCCCCCCCCCCCCCCC(=O)N[C@H](C(=O)N[C@H](C(=O)N[C@@H](Cc1ccccc1)C(=O)N[C@@H](CCCNC(=N)N)C(=O)N[C@@H](CO)C(=O)N[C@@H](CO)C(=O)N[C@@H](CCC(=O)O)C(=O)N[C@H](CCCCN)C(=O)N[C@@H](CCCNC(=N)N)C(=O)N[C@@H](CCCNC(=N)N)C(=O)N[C@@H](CO)C(=O)N[C@@H](C)C(=O)N[C@@H](Cc1c[nH]cn1)C(=O)N[C@H](C(=O)N[C@@H](Cc1ccccc1)C(=O)N[C@H](C(N)=O)[C@@H](C)CC)[C@@H](C)CC)C(C)C)[C@@H](C)O [Compound 16] (Palmitoyl-TVFRSSE[dK]RRSAHIFI-NH2)
percent intrinsic activity at 0.3 µM (APJ receptor): 63%
Histimine (% vs. 48/40) (Histimine (% vs. 48/40)): 107%

CCCCCCCCCCCCCCCC(=O)N[C@H](C(=O)N[C@H](C(=O)N[C@@H](Cc1ccccc1)C(=O)N[C@@H](CCCNC(=N)N)C(=O)N[C@@H](CO)C(=O)N[C@@H](CO)C(=O)N[C@@H](CCC(=O)O)C(=O)N[C@H](CCCCN)C(=O)N[C@@H](CCCNC(=N)N)C(=O)N[C@@H](CCCNC(=N)N)C(=O)N[C@@H](CO)C(=O)N[C@@H](C)C(=O)N[C@@H](CC(=O)O)C(=O)N[C@@H](Cc1c[nH]cn1)C(=O)N[C@@H](Cc1ccccc1)C(=O)N[C@H](C(N)=O)[C@@H](C)CC)C(C)C)[C@@H](C)O [Compound 17] (Palmitoyl-TVFRSSE[dK]RRSADHFI-NH2)
percent intrinsic activity at 0.3 µM (APJ receptor): 83%
Histimine (% vs. 48/40) (Histimine (% vs. 48/40)): 113%

CCCCCCCCCCCCCCCC(=O)N[C@H](C(=O)N[C@H](C(=O)N[C@@H](Cc1ccccc1)C(=O)N[C@@H](CCCNC(=N)N)C(=O)N[C@@H](CO)C(=O)N[C@@H](CO)C(=O)N[C@@H](CCC(=O)O)C(=O)N[C@H](CCCCN)C(=O)N[C@@H](CCCNC(=N)N)C(=O)N[C@@H](CCCNC(=N)N)C(=O)N[C@@H](CO)C(=O)N[C@@H](C)C(=O)N[C@@H](CC(=O)O)C(=O)N[C@H](C(=O)N[C@@H](Cc1c[nH]cn1)C(=O)N[C@H](C(N)=O)[C@@H](C)CC)[C@@H](C)CC)C(C)C)[C@@H](C)O [Compound 18] (Palmitoyl-TVFRSSE[dK]RRSADIHI-NH2)
percent intrinsic activity at 0.3 µM (APJ receptor): 56%
Histimine (% vs. 48/40) (Histimine (% vs. 48/40)): 62%

CCCCCCCCCCCCCCCC(=O)N[C@H](C(=O)N[C@H](C(=O)N[C@@H](Cc1ccccc1)C(=O)N[C@@H](CCCNC(=N)N)C(=O)N[C@@H](CO)C(=O)N[C@@H](CO)C(=O)N[C@@H](CCC(=O)O)C(=O)N[C@H](CCCCN)C(=O)N[C@@H](CCCNC(=N)N)C(=O)N[C@@H](CCCNC(=N)N)C(=O)N[C@@H](CO)C(=O)N[C@@H](C)C(=O)N[C@@H](CC(=O)O)C(=O)N[C@H](C(=O)N[C@@H](Cc1ccccc1)C(=O)N[C@@H](Cc1c[nH]cn1)C(N)=O)[C@@H](C)CC)C(C)C)[C@@H](C)O [Compound 19] (Palmitoyl-TVFRSSE[dK]RRSADIFH-NH2)
percent intrinsic activity at 0.3 µM (APJ receptor): 53%
Histimine (% vs. 48/40) (Histimine (% vs. 48/40)): 104%

CCCCCCCCCCCCCCCC(=O)N[C@H](C(=O)N[C@@H](CCC(N)=O)C(=O)N[C@@H](Cc1ccccc1)C(=O)N[C@@H](CCCNC(=N)N)C(=O)N[C@@H](CO)C(=O)N[C@@H](CO)C(=O)N[C@@H](CCC(=O)O)C(=O)N[C@H](CCCCN)C(=O)N[C@@H](CCCNC(=N)N)C(=O)N[C@@H](CCCNC(=N)N)C(=O)N[C@@H](CO)C(=O)N[C@@H](C)C(=O)N[C@@H](CC(=O)O)C(=O)N[C@H](C(=O)N[C@@H](Cc1ccccc1)C(=O)N[C@H](C(N)=O)[C@@H](C)CC)[C@@H](C)CC)[C@@H](C)O [Compound 21] (Palmitoyl-TQFRSSE[dK]RRSADIFI-NH2; C-terminus assumed)
EC50 (APJ receptor): 41 nM
Ranking (APJ receptor): *** (EC50<100 nM and % histamine>35%)
percent intrinsic activity at 0.3 µM (APJ receptor): 72%
Histimine (% vs. 48/40) (Histimine (% vs. 48/40)): 39%

CCCCCCCCCCCCCCCC(=O)N[C@H](C(=O)N[C@H](C(=O)N[C@@H](Cc1ccccc1)C(=O)N[C@@H](CCCNC(=N)N)C(=O)N[C@@H](CO)C(=O)N[C@@H](CO)C(=O)N[C@@H](CCC(=O)O)C(=O)N[C@H](CCCCN)C(=O)N[C@@H](CCC(N)=O)C(=O)N[C@@H](CCCNC(=N)N)C(=O)N[C@@H](CO)C(=O)N[C@@H](C)C(=O)N[C@@H](CC(=O)O)C(=O)N[C@H](C(=O)N[C@@H](Cc1ccccc1)C(=O)N[C@H](C(N)=O)[C@@H](C)CC)[C@@H](C)CC)C(C)C)[C@@H](C)O [Compound 26] (Palmitoyl-TVFRSSE[dK]QRSADIFI-NH2; C-terminus assumed)
EC50 (APJ receptor): 112 nM
Ranking (APJ receptor): **** (EC50 101-500 nM and % histamine<35%)
percent intrinsic activity at 0.3 µM (APJ receptor): 6%
Histimine (% vs. 48/40) (Histimine (% vs. 48/40)): −1%

CCCCCCCCCCCCCCCC(=O)N[C@H](C(=O)N[C@H](C(=O)N[C@@H](Cc1ccccc1)C(=O)N[C@@H](CCCNC(=N)N)C(=O)N[C@@H](CO)C(=O)N[C@@H](CO)C(=O)N[C@@H](CCC(=O)O)C(=O)N[C@H](CCCCN)C(=O)N[C@@H](CCCNC(=N)N)C(=O)N[C@@H](CCC(N)=O)C(=O)N[C@@H](CO)C(=O)N[C@@H](C)C(=O)N[C@@H](CC(=O)O)C(=O)N[C@H](C(=O)N[C@@H](Cc1ccccc1)C(=O)N[C@H](C(N)=O)[C@@H](C)CC)[C@@H](C)CC)C(C)C)[C@@H](C)O [Compound 27] (Palmitoyl-TVFRSSE[dK]RQSADIFI-NH2)
percent intrinsic activity at 0.3 µM (APJ receptor): 7%
Histimine (% vs. 48/40) (Histimine (% vs. 48/40)): 4%

CCCCCCCCCCCCCCCC(=O)N[C@H](C(=O)N[C@H](C(=O)N[C@@H](Cc1ccccc1)C(=O)N[C@@H](CCCNC(=N)N)C(=O)N[C@@H](CO)C(=O)N[C@@H](CO)C(=O)N[C@@H](CCC(=O)O)C(=O)N[C@H](CCCCN)C(=O)N[C@@H](CCCNC(=N)N)C(=O)N[C@@H](CCCNC(=N)N)C(=O)N[C@@H](CO)C(=O)N[C@@H](CCC(N)=O)C(=O)N[C@@H](CC(=O)O)C(=O)N[C@H](C(=O)N[C@@H](Cc1ccccc1)C(=O)N[C@H](C(N)=O)[C@@H](C)CC)[C@@H](C)CC)C(C)C)[C@@H](C)O [Compound 28] (Palmitoyl-TVFRSSE[dK]RRSQDIFI-NH2)
percent intrinsic activity at 0.3 µM (APJ receptor): 8%
Histimine (% vs. 48/40) (Histimine (% vs. 48/40)): 16%

CCCCCCCCCCCCCCCC(=O)N[C@H](C(=O)N[C@H](C(=O)N[C@@H](Cc1ccccc1)C(=O)N[C@@H](CCCNC(=N)N)C(=O)N[C@@H](CO)C(=O)N[C@@H](CO)C(=O)N[C@@H](CCC(=O)O)C(=O)N[C@H](CCCCN)C(=O)N[C@@H](CCCNC(=N)N)C(=O)N[C@@H](CCCNC(=N)N)C(=O)N[C@@H](CO)C(=O)N[C@@H](C)C(=O)N[C@@H](CCC(N)=O)C(=O)N[C@H](C(=O)N[C@@H](Cc1ccccc1)C(=O)N[C@H](C(N)=O)[C@@H](C)CC)[C@@H](C)CC)C(C)C)[C@@H](C)O [Compound 29] (Palmitoyl-TVFRSSE[dK]RRSAQIFI-NH2)
percent intrinsic activity at 0.3 µM (APJ receptor): 9%
Histimine (% vs. 48/40) (Histimine (% vs. 48/40)): 92%

CCCCCCCCCCCCCCCC(=O)N[C@H](C(=O)N[C@H](C(=O)N[C@@H](Cc1ccccc1)C(=O)N[C@@H](CCCNC(=N)N)C(=O)N[C@@H](CO)C(=O)N[C@@H](CO)C(=O)N[C@@H](CCC(=O)O)C(=O)N[C@H](CCCCN)C(=O)N[C@@H](CCCNC(=N)N)C(=O)N[C@@H](CCCNC(=N)N)C(=O)N[C@@H](CO)C(=O)N[C@@H](C)C(=O)N[C@@H](CC(=O)O)C(=O)N[C@@H](CCC(N)=O)C(=O)N[C@@H](Cc1ccccc1)C(=O)N[C@H](C(N)=O)[C@@H](C)CC)C(C)C)[C@@H](C)O [Compound 30] (Palmitoyl-TVFRSSE[dK]RRSADQFI-NH2; C-terminus assumed)
Ranking (APJ receptor): *** (EC50<100 nM and % histamine>35%)
EC50 (APJ receptor; [1]): 84.6 nM
percent intrinsic activity at 0.3 µM (APJ receptor): 98%
Histimine (% vs. 48/40) (Histimine (% vs. 48/40)): 63%
